# From ChEMBL document CHEMBL5042473 (J Med Chem, 2022)
# Experiments:
# [1] = target: Mitogen-activated protein kinase 14 (Homo sapiens, UniProt Q16539); test: Inhibition of human p38 MAPK alpha incubated for 1 hr by photometric method
# [2] = Metabolic stability in human liver microsomes assessed as parent compound remaining incubated for 120 mins; assay type: ADME, Microsome; conditions: read-out: Stability
# [3] = Ratio of drug concentration in RjOrl:Swiss (CD-1) mouse brain to plasma at 10mg/kg, iv administered measured after 2 hrs by LC-MS/MS analysis; assay type: ADME, organism-based; conditions: brain and plasma, read-out: BPR
# CYP2D6 = CYP2D6 (Homo sapiens, UniProt P10635); test: Inhibition of human recombinant CYP2D6 at 10 uM relative to control; assay type: ADME
# CYP2C9 = CYP2C9 (Homo sapiens, UniProt P11712); test: Inhibition of human recombinant CYP2C9 at 10 uM relative to control; assay type: ADME
# CYP1A2 = target: T1, CYP1A2 (Homo sapiens, UniProt P05177); test: Inhibition of human recombinant CYP1A2 at 10 uM relative to control; assay type: ADME
# T1 sequence (P05177 whole entry): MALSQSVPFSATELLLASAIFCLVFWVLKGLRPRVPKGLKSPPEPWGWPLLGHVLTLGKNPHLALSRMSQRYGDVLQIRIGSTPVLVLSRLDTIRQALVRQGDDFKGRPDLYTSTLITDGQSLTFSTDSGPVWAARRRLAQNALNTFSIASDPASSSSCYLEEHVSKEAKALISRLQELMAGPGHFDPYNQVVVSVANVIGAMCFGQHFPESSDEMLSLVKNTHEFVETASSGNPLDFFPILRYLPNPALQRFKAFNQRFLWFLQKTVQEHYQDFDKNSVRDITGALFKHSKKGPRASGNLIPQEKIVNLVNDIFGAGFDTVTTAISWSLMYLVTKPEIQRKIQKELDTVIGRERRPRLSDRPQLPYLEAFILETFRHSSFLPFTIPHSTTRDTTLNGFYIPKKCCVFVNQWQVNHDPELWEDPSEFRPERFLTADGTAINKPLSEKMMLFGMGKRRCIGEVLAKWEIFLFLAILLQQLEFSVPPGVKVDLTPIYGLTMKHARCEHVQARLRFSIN
# hERG = hERG (Homo sapiens, UniProt Q12809); test: Inhibition of hERG at 10 uM by fluorimetric analysis relative to control; assay type: toxicity
# CYP2C19 = CYP2C19 (Homo sapiens, UniProt P33261); test: Inhibition of human recombinant CYP2C19 at 10 uM relative to control; assay type: ADME
# [4] = Drug uptake in RjOrl:Swiss (CD-1) mouse brain at 10 mg/kg, iv administered measured after 2 hrs by LC-MS/MS analysis; assay type: ADME, organism-based; conditions: read-out: Ct
# CYP3A4 = CYP3A4 (Homo sapiens, UniProt P08684); test: Inhibition of human recombinant CYP3A4 at 10 uM relative to control; assay type: ADME
# Splenocyte = test: Cytotoxicity against Balb/c mouse splenocytes assessed as metabolic activity at 1 to 10 nM incubated for 24 hrs by MTT assay; assay type: toxicity, cell-based; conditions: 0.01 µM, dose 1-10 nM
# Blood = test: Antiinflammatory activity against LPS-stimulated C57BL/6 mouse whole blood assessed as reduction in TNF-alpha at 1 nM incubated for 24 hrs by ELISA based method; assay type: functional; design: scale not given: the % may be the effect or the level left
# [5] = Drug uptake in mouse C57BL/6 brain at 0.4 mg/kg,po measured upto 240 mins by LC-MS/MS analysis; assay type: ADME, organism-based; conditions: in vivo, 4 h
# [6] = Cytotoxicity against Balb/c mouse splenocytes assessed as metabolic activity at 100 nM incubated for 24 hrs by MTT assay relative to LPS-stimulated splenocytes; assay type: toxicity, cell-based, Splenocyte; conditions: read-out: Activity
# [7] = Drug uptake in mouse C57BL/6 brain at 0.4 mg/kg,iv measured upto 240 mins by LC-MS/MS analysis; assay type: ADME, organism-based; conditions: in vivo, 4 h
# Chain of Mitogen-activated protein kinase 14 (Q16539 whole entry): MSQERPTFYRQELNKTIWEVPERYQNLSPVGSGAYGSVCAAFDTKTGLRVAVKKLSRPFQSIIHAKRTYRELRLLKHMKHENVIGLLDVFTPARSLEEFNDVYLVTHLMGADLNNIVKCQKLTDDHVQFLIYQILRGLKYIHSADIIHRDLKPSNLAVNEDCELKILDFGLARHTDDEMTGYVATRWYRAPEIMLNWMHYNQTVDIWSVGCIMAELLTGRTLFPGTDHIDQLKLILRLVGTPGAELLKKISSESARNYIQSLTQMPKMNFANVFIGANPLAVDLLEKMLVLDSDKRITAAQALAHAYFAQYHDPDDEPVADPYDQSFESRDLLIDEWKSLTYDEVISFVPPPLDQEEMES
# Chain of CYP3A4 (P08684 whole entry): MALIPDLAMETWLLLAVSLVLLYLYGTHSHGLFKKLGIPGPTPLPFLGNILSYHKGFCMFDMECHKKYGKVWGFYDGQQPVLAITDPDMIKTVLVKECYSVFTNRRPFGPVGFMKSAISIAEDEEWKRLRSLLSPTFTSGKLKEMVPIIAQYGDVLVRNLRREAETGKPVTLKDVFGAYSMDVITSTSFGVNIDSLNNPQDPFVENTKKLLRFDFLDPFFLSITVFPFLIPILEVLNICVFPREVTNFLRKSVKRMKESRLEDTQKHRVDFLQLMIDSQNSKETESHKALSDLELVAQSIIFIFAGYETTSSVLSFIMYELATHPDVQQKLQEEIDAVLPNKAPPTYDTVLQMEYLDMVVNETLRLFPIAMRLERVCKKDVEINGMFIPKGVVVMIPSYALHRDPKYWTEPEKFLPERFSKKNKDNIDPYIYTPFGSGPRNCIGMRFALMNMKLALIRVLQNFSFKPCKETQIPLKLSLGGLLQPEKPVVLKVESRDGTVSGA
# Chain of hERG (Q12809 whole entry): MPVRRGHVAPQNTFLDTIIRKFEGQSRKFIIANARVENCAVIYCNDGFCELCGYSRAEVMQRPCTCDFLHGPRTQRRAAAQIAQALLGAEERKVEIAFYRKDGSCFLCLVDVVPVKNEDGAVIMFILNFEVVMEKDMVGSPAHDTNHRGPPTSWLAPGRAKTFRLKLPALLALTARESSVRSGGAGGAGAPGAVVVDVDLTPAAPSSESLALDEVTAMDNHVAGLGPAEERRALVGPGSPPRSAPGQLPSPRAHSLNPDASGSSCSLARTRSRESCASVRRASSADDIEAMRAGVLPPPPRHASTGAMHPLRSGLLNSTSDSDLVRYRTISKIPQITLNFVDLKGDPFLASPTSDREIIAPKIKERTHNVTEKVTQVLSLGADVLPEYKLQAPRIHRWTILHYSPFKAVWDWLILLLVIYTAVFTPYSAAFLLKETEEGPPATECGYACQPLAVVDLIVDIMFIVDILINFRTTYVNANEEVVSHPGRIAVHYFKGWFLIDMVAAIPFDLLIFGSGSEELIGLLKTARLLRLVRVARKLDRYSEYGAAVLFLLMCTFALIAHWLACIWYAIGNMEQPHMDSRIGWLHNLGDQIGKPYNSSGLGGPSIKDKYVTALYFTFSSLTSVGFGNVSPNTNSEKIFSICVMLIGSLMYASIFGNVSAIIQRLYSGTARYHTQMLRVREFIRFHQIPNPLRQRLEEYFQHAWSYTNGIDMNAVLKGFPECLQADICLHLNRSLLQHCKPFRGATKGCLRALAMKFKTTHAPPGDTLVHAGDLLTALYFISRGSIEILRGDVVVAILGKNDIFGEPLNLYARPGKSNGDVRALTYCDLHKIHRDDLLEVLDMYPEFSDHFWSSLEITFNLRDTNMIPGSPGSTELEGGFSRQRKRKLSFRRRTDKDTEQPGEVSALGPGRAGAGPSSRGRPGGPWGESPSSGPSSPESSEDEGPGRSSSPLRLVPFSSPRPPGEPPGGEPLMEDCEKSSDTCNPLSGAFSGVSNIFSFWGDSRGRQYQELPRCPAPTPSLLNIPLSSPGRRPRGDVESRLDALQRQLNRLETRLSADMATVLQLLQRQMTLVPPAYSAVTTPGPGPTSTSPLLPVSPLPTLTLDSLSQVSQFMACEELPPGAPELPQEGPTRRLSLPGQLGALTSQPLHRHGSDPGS
# Chain of CYP2D6 (P10635 whole entry): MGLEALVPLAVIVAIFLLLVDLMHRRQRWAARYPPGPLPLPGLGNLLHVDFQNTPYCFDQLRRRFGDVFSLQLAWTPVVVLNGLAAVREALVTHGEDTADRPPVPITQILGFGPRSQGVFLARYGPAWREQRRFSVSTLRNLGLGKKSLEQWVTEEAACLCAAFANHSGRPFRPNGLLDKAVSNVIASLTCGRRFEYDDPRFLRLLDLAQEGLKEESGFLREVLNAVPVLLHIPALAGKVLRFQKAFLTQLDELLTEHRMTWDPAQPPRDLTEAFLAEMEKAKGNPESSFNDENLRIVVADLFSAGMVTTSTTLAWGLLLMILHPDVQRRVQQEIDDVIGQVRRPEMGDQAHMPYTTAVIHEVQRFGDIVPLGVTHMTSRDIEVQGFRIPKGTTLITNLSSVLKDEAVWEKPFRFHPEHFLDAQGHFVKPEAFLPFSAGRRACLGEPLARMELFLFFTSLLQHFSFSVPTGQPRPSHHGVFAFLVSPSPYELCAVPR
# Chain of CYP2C9 (P11712 whole entry): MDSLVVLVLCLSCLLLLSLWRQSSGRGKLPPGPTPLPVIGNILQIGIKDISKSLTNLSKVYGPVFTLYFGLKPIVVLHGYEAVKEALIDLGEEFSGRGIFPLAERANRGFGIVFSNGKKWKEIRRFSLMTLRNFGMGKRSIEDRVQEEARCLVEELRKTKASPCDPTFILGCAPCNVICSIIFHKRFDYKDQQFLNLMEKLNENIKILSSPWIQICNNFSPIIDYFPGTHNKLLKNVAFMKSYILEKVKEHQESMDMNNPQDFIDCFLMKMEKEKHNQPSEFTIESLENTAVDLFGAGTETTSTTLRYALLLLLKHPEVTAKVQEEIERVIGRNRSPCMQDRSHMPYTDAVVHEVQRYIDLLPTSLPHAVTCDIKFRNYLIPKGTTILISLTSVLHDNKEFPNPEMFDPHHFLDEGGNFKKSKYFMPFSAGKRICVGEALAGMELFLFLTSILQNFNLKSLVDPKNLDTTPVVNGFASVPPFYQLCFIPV
# Chain of CYP2C19 (P33261 whole entry): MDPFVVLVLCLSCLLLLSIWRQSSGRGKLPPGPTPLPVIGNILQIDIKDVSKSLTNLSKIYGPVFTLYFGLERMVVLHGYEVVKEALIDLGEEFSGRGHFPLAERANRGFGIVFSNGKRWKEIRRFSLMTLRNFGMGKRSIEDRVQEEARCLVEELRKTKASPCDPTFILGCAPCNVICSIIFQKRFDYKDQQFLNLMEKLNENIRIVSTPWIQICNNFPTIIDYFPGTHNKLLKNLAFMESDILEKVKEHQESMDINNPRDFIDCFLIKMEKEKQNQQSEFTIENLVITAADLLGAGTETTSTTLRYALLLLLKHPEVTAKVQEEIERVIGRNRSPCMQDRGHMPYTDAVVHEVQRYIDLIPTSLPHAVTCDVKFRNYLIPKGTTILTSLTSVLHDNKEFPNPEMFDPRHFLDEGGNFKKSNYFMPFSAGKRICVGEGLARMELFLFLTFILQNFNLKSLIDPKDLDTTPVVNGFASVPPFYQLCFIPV
compound,measurement,setting,value
COC(=O)CC[C@H](NC(=O)c1ccc2c(c1)C(=O)c1ccc(Nc3ccc(F)cc3F)cc1CC2)C(=O)OC,IC50,[1],1.2 nM
O=C(NCCc1c[nH]c2ccccc12)c1ccc2c(c1)C(=O)c1ccc(Nc3ccc(F)cc3F)cc1CC2,IC50,[1],28 nM
same,remaining at 2 h,[2],71%
Nc1ccccc1Nc1ccc2c(c1)CCc1ccc(C(=O)NCCN3CCNCC3)cc1C2=O,IC50,[1],18 nM
COC(=O)[C@@H](N)CNC(=O)c1ccc2c(c1)C(=O)c1ccc(Nc3ccc(F)cc3F)cc1CC2,IC50,[1],5.4 nM
same,remaining at 2 h,[2],12%
O=C(NCCCc1ccccc1)c1ccc2c(c1)C(=O)c1ccc(Nc3ccc(F)cc3F)cc1CC2,IC50,[1],50 nM
COC(=O)[C@H](CCSC)NC(=O)c1ccc2c(c1)C(=O)c1ccc(Nc3ccccc3N)cc1CC2,IC50,[1],13 nM
same,remaining at 2 h,[2],0%
CN(CCc1ccccc1)C(=O)c1ccc2c(c1)C(=O)c1ccc(Nc3ccc(F)cc3F)cc1CC2,IC50,[1],390 nM
N[C@@H](CCCCNC(=O)c1ccc2c(c1)C(=O)c1ccc(Nc3ccc(F)cc3F)cc1CC2)C(=O)O,IC50,[1],3.5 nM
same,Kp at 2 h,[3],0.01
Nc1ccccc1Nc1ccc2c(c1)CCc1ccc(C(=O)NCCO)cc1C2=O,IC50,[1],14 nM
same,remaining at 2 h,[2],99%
O=C(NCCc1ccc(O)cc1)c1ccc2c(c1)C(=O)c1ccc(Nc3ccc(F)cc3F)cc1CC2,IC50,[1],7.8 nM
N[C@@H](CNC(=O)c1ccc2c(c1)C(=O)c1ccc(Nc3ccc(F)cc3F)cc1CC2)C(=O)O,Kp at 2 h,[3],0.003
O=C(NCCN1CC2(COC2)C1)c1ccc2c(c1)C(=O)c1ccc(Nc3ccc(F)cc3F)cc1CC2,IC50,[1],5.9 nM
same,inhibition at 10 µM,CYP2D6,18.3%
same,remaining at 2 h,[2],47%
same,inhibition at 10 µM,CYP2C9,88.7%
same,inhibition at 10 µM,CYP1A2,0%
same,inhibition at 10 µM,hERG,76.6%
same,Kp at 2 h,[3],0.16
same,inhibition at 10 µM,CYP2C19,93.6%
same,concentration at 2 h,[4],68 ng/g
same,inhibition at 10 µM,CYP3A4,83.6%
COC(=O)[C@@H](N)CCCCNC(=O)c1ccc2c(c1)C(=O)c1ccc(Nc3ccccc3N)cc1CC2,IC50,[1],12 nM
NC(=O)CCNC(=O)c1ccc2c(c1)C(=O)c1ccc(Nc3ccc(F)cc3F)cc1CC2,IC50,[1],6.2 nM
same,remaining at 2 h,[2],95%
O=C(NC(CO)(CO)CO)c1ccc2c(c1)C(=O)c1ccc(Nc3ccc(F)cc3F)cc1CC2,IC50,[1],3 nM
same,Activity,Splenocyte,Non-Toxic
same,Activity,Blood,5%
same,Drug uptake,[5],Not Active
same,"viability at 24 h, 0.1 µM",[6],66%
same,Drug uptake,[7],Not Active
CC(NC(=O)c1ccc2c(c1)C(=O)c1ccc(Nc3ccc(F)cc3F)cc1CC2)C1CCCCC1 (centres undefined),IC50,[1],22 nM
O=C(NC1(c2ccccc2)CC1)c1ccc2c(c1)C(=O)c1ccc(Nc3ccc(F)cc3F)cc1CC2,IC50,[1],2.5 nM
same,Kp at 2 h,[3],0.51
same,concentration at 2 h,[4],49 ng/g
NCCNC(=O)c1ccc2c(c1)C(=O)c1ccc(Nc3ccc(F)cc3F)cc1CC2,IC50,[1],2.5 nM
same,Activity,Splenocyte,Non-Toxic
same,Activity,Blood,5%
same,Drug uptake,[5],Not Active
same,"viability at 24 h, 0.1 µM",[6],66%
same,Drug uptake,[7],Not Active
O=C(NCC(F)(F)F)c1ccc2c(c1)C(=O)c1ccc(Nc3ccc(F)cc3F)cc1CC2,IC50,[1],3.5 nM
O=C(NCCc1ccc(F)cc1)c1ccc2c(c1)C(=O)c1ccc(Nc3ccc(F)cc3F)cc1CC2,IC50,[1],21 nM
Nc1ccccc1Nc1ccc2c(c1)CCc1ccc(C(=O)NCCCC[C@H](N)C(=O)O)cc1C2=O,IC50,[1],17 nM
COC(=O)[C@@H](N)CCCCNC(=O)c1ccc2c(c1)C(=O)c1ccc(Nc3ccc(F)cc3F)cc1CC2,IC50,[1],2.1 nM
Nc1ccccc1Nc1ccc2c(c1)CCc1ccc(C(=O)N[C@@H](CCC(=O)O)C(=O)O)cc1C2=O,IC50,[1],27 nM
O=C(NCCc1c[nH]cn1)c1ccc2c(c1)C(=O)c1ccc(Nc3ccc(F)cc3F)cc1CC2,IC50,[1],5.6 nM
same,remaining at 2 h,[2],95%
NC(=O)c1ccc2c(c1)C(=O)c1ccc(Nc3ccccc3N)cc1CC2,IC50,[1],6.1 nM
NCCNC(=O)c1ccc2c(c1)C(=O)c1ccc(Nc3ccccc3N)cc1CC2,IC50,[1],5.3 nM
O=C(NO)c1ccc2c(c1)C(=O)c1ccc(Nc3ccc(F)cc3F)cc1CC2,IC50,[1],5.2 nM
same,remaining at 2 h,[2],13%
Nc1ccccc1Nc1ccc2c(c1)CCc1ccc(C(=O)NC(CO)CO)cc1C2=O,IC50,[1],15 nM
COC(=O)[C@H](C)NC(=O)c1ccc2c(c1)C(=O)c1ccc(Nc3ccc(F)cc3F)cc1CC2,IC50,[1],3 nM
same,remaining at 2 h,[2],93%
O=C(NCCN1CCNCC1)c1ccc2c(c1)C(=O)c1ccc(Nc3ccc(F)cc3F)cc1CC2,IC50,[1],1.3 nM
same,remaining at 2 h,[2],93%
same,Kp at 2 h,[3],0.24
O=C(N[C@@H]1[C@@H](O)[C@H](O)[C@@H](CO)O[C@H]1O)c1ccc2c(c1)C(=O)c1ccc(Nc3ccc(F)cc3F)cc1CC2,IC50,[1],5.2 nM
same,Kp at 2 h,[3],0.09
same,concentration at 2 h,[4],5.9 ng/g
O=C(NCCc1cccs1)c1ccc2c(c1)C(=O)c1ccc(Nc3ccc(F)cc3F)cc1CC2,IC50,[1],6.4 nM
O=C(O)CNC(=O)c1ccc2c(c1)C(=O)c1ccc(Nc3ccc(F)cc3F)cc1CC2,IC50,[1],9.3 nM
same,remaining at 2 h,[2],93%
same,Kp at 2 h,[3],0.13
same,concentration at 2 h,[4],8.2 ng/g
CC(C)(C)OC(=O)N1CCN(CCNC(=O)c2ccc3c(c2)C(=O)c2ccc(Nc4ccccc4N)cc2CC3)CC1,IC50,[1],1.9 nM
Nc1ccccc1Nc1ccc2c(c1)CCc1ccc(C(=O)NCC(O)CO)cc1C2=O (centres undefined),IC50,[1],15 nM
CN(C)CCNC(=O)c1ccc2c(c1)C(=O)c1ccc(Nc3ccccc3N)cc1CC2,IC50,[1],8.4 nM
same,remaining at 2 h,[2],50%
same,Kp at 2 h,[3],0.59
COC(=O)CNC(=O)c1ccc2c(c1)C(=O)c1ccc(Nc3ccc(F)cc3F)cc1CC2,IC50,[1],12 nM
same,remaining at 2 h,[2],0%
CCCCCCCCCCCCCCCCNC(=O)c1ccc2c(c1)C(=O)c1ccc(Nc3ccc(F)cc3F)cc1CC2,IC50,[1],> 1000 nM
COC(=O)[C@H](CCSC)NC(=O)c1ccc2c(c1)C(=O)c1ccc(Nc3ccc(F)cc3F)cc1CC2,IC50,[1],6.9 nM
CN(C)C(=O)c1ccc2c(c1)C(=O)c1ccc(Nc3ccc(F)cc3F)cc1CC2,IC50,[1],95 nM
Nc1ccccc1Nc1ccc2c(c1)CCc1ccc(C(=O)NCCc3cnc[nH]3)cc1C2=O,IC50,[1],26 nM
Nc1ccccc1Nc1ccc2c(c1)CCc1ccc(C(=O)NCCc3ccccc3)cc1C2=O,IC50,[1],20 nM
O=C(NCCOCCO)c1ccc2c(c1)C(=O)c1ccc(Nc3ccc(F)cc3F)cc1CC2,IC50,[1],10 nM
same,Activity,Splenocyte,Non-Toxic
same,Activity,Blood,5%
same,Drug uptake,[5],Not Active
same,"viability at 24 h, 0.1 µM",[6],66%
same,Drug uptake,[7],Not Active
Nc1ccccc1Nc1ccc2c(c1)CCc1ccc(C(=O)NCCN3CCOCC3)cc1C2=O,IC50,[1],18 nM
same,remaining at 2 h,[2],< 38%
same,Kp at 2 h,[3],0.08
CSCC[C@H](NC(=O)c1ccc2c(c1)C(=O)c1ccc(Nc3ccc(F)cc3F)cc1CC2)C(=O)O,IC50,[1],11 nM
same,Drug uptake,[5],Not Active
same,Drug uptake,[7],Not Active
CCCCCCCCNC(=O)c1ccc2c(c1)C(=O)c1ccc(Nc3ccc(F)cc3F)cc1CC2,IC50,[1],390 nM
O=C(O)CC[C@H](NC(=O)c1ccc2c(c1)C(=O)c1ccc(Nc3ccc(F)cc3F)cc1CC2)C(=O)O,IC50,[1],8 nM
same,remaining at 2 h,[2],93%
O=C1c2ccc(Nc3ccc(F)cc3F)cc2CCc2ccc(C(=O)N3CCCCC3)cc21,IC50,[1],120 nM
O=C(NCCc1ccccc1)c1ccc2c(c1)C(=O)c1ccc(Nc3ccc(F)cc3F)cc1CC2,IC50,[1],21 nM
COC(=O)[C@@H](N)CCNC(=O)c1ccc2c(c1)C(=O)c1ccc(Nc3ccc(F)cc3F)cc1CC2,IC50,[1],2.3 nM
same,Activity,Splenocyte,Non-Toxic
same,Activity,Blood,5%
same,Drug uptake,[5],Not Active
same,remaining at 2 h,[2],6%
same,"viability at 24 h, 0.1 µM",[6],66%
same,Drug uptake,[7],Not Active
O=C(N[C@@H](Cc1ccccc1)C(=O)O)c1ccc2c(c1)C(=O)c1ccc(Nc3ccc(F)cc3F)cc1CC2,IC50,[1],36 nM
same,Kp at 2 h,[3],0.31
same,concentration at 2 h,[4],15 ng/g
COC(=O)[C@H](Cc1ccccc1)NC(=O)c1ccc2c(c1)C(=O)c1ccc(Nc3ccc(F)cc3F)cc1CC2,IC50,[1],15 nM
O=C(NCCNCCO)c1ccc2c(c1)C(=O)c1ccc(Nc3ccc(F)cc3F)cc1CC2,IC50,[1],1.7 nM
same,Kp at 2 h,[3],0.17
CC(C)(C)OC(=O)N1CCN(CCNC(=O)c2ccc3c(c2)C(=O)c2ccc(Nc4ccc(F)cc4F)cc2CC3)CC1,IC50,[1],2.4 nM
COC(=O)CC[C@H](NC(=O)c1ccc2c(c1)C(=O)c1ccc(Nc3ccccc3N)cc1CC2)C(=O)OC,IC50,[1],17 nM
